From patent US20240109925A1, “Enhanced Anti-Proliferative and Antitumor Immune Effects of Mitochondria-Targeted Hydroxyurea” (The Medical College of Wisconsin, Inc., priority 2021, published 2024)

How the values were obtained:
[1] = system: MiaPaCa-2 human pancreatic cancer cells; assay: Cell proliferation, IncuCyte Live-Cell Analysis system; type: cell-based
Text: FIG. 7. Effects of HU and Mito10-HU on proliferation of MiaPaCa-2 human pancreatic cancer cells; MiaPaCa-2 cells treated with HU or Mito10-HU were monitored in the IncuCyte Live-Cell Analysis system. Cell proliferation was monitored in real-time with the continuous presence of indicated treatments until the end of each experiment. Data shown are the means±SD.
The following cell lines were obtained from the American Type Culture Collection (Manassas, VA), where they were regularly authenticated: HCT116 (ATCC Cat #CRL-247, human colon cancer cells) and MiaPaCa-2 (ATCC Cat #CRL-1420, human pancreatic cancer cells). All cells were cultured in a humidified incubator at 37° C. and 5% carbon dioxide. HCT116 cells were maintained in RPMI 1640 medium (Thermo Fisher Scientific, Cat #11875), supplemented with 10% fetal bovine serum. MiaPaCa-2 cells were maintained in Dulbecco's Modified Eagle Medium (Thermo Fisher Scientific, Waltham, MA; Cat #11965) supplemented with 10% fetal bovine serum. All cells were stored in liquid nitrogen and used within 20 passages after thawing.
The IncuCyte Live-Cell Analysis system (Essen Bioscience Inc., Ann Arbor, MI) was used to monitor cell proliferation (Cheng et al., 2013, 2016; Boyle et al., 2018). As shown in previous publications (Cheng et al., 2013, 2016), this imaging system is probe-free and noninvasive, and enables continuous monitoring of cell confluence over several days. The increase in the percentage of cell confluence was used as a surrogate marker of cell proliferation. In a 96-well plate, cells were plated at 1,000 cells per well in triplicates and left to adhere overnight. Cells were then treated with HU and Mito-HUs, and the cell confluency was recorded over several days in the IncuCyte Live-Cell Analysis system.

[2] = system: HCT116 human colon cancer cells; assay: Cell proliferation (cell confluence), IncuCyte Live-Cell Analysis system; type: cell-based

Structure (SMILES)	inhibition of proliferation of MiaPaCa-2 cells [1]	potency compared with HU in inhibiting MiaPaCa-2 cell proliferation [1] [times]	antiproliferative effect, each alone (AZD-3965 experiment) ([2]; Mito10-HU (5 μM) or AZD-3965 (100 μM) independently, HCT-116)	effect on cell proliferation, each alone (syrosingopine experiment) ([2]; Mito10-HU (5 μM) or syrosingopine (7.5 μM) independently, HCT116)
NC(=O)NOCCCCCCCCCC[P+](c1ccccc1)(c1ccccc1)c1ccccc1.O=C([O-])C(F)(F)F [Mito10-HU, 10-[(carbamoylamino)oxy]-decyltriphenylphosphonium trifluoroacetate]	increasing antiproliferative potencies	~100	negligible antiproliferative effects	minimally affected cell proliferation
NC(=O)NOCCCCCCCCCCCC[P+](c1ccccc1)(c1ccccc1)c1ccccc1.O=C([O-])C(F)(F)F [Mito12-HU, 12-[(carbamoylamino)oxy]-dodecyltriphenylphosphonium trifluoroacetate]	increasing antiproliferative potencies			
NC(=O)NOCCCCCCCCCCCCCCCC[P+](c1ccccc1)(c1ccccc1)c1ccccc1.O=C([O-])C(F)(F)F [Mito16-HU, 16-[(carbamoylamino)oxy]-hexadecyltriphenylphosphonium trifluoroacetate]	increasing antiproliferative potencies			
NC(=O)NOCCCCCCCCCCCCCCCCCCCC[P+](c1ccccc1)(c1ccccc1)c1ccccc1.O=C([O-])C(F)(F)F [Mito20-HU, 20-[(carbamoylamino)oxy]-eicosanyltriphenylphosphonium trifluoroacetate]	increasing antiproliferative potencies			
